Test results reported in patent publication US6596724B2, “Oxadiazole and thiadiazole derivatives of dihydropyridine NPY antagonists” (Bristol-Myers Squibb Company, priority 2000, dated 2003).

Tests used:
[1] = target: T1, I-125 Bolton-Hunter labeled NPY in human neuroblastoma cells (SK-N-MC) (Homo sapiens, UniProt P25929); details: cited from earlier work
T1 construct: displaces I-125 Bolton-Hunter labeled NPY in human neuroblastoma cells (SK-N-MC); host or cells: SK-N-MC human neuroblastoma cells (endogenous receptor)
T1 sequence (P25929 1-384): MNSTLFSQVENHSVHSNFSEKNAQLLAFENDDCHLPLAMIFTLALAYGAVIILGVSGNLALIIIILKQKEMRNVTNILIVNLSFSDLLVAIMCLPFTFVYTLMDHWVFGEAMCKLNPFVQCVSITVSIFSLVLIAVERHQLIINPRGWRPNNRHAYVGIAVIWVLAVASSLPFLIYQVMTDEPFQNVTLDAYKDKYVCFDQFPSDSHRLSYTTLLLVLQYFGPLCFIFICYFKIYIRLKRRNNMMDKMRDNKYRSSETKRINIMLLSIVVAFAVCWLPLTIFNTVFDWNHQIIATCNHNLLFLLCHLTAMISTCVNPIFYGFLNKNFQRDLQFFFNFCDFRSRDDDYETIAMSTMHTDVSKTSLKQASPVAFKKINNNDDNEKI

[2] = test system: NPY-induced increase in intracellular Ca++ in SK-N-MC cells; details: cited from earlier work
[3] = test system: NPY-induced pressor response; details: pithed rat; cited from earlier work
[4] = test system: NPY-induced contractions in guinea pig basilar artery; details: cited from earlier work
[5] = target: T2, I-125 labeled NPY and PYY in human neuroblastoma cells (Homo sapiens, UniProt P25929); details: cited from earlier work
T2 construct: displacing I-125 labeled NPY and PYY in human neuroblastoma cells
T2 sequence (P25929 1-384): T1 sequence (P25929 1-384)

[6] = test system: NPY-related increases in diastolic blood pressure; details: anesthetized guinea pig model; cited from earlier work

NC(N)=NCCC[C@@H](NC(=O)C(c1ccccc1)c1ccccc1)C(=O)NCc1ccc(O)cc1 [BIBP 3226]
displacement of I-125 Bolton-Hunter labeled NPY [1]: displaces | antagonism of NPY-induced increase in intracellular Ca++ [2]: antagonized | antagonism of NPY-induced pressor response [3]: antagonizing

O=P(O)(O)OC1[C@H](OP(=O)(O)O)[C@H](O)C(O)[C@H](O)[C@H]1OP(=O)(O)O (stereo partly drawn) [D-Myo-inositol-1,2,6-triphosphate]
antagonism of NPY-induced contractions [4]: potent but non-competitive antagonist

COC(=O)C1=C(C)NC(C)=C(C(=O)OC)C1c1cccc(NC(=O)NNC(=O)CN2CCC(c3ccccc3)CC2)c1 [Example 18, 4-[3-[[[2-[(4-Phenyl-1-piperidinyl)acetyl]-hydrazino]-carbonyl]amino]phenyl]1,4-dihydro-2,6-dimethyl-3,5-pyridinedicarboxylic acid, dimethyl ester]
melting point: 138 to 143 °C

COC(=O)C1=C(C)NC(C)=C(C(=O)OC)C1c1cccc(NC(=S)NNC(=O)CN2CCC(c3ccccc3)CC2)c1 [Example 19, 4-[3-[[[2-[(4-Phenyl-1-piperidinyl)acetyl]-hydrazino]-carbonothioyl]amino]phenyl]1,4-dihydro-2,6-dimethyl-3,5-pyridinedicarboxylic acid, dimethyl ester]
melting point: 125 to 130 °C

COC(=O)C1=C(C)NC(C)=C(C(=O)OC)C1c1cccc(NC(=S)NNC(=O)CN2CCC(c3cccc(OC)c3)CC2)c1 [Example 20, 4-[3-[[[2-[[4-(3-Methoxyphenyl)-1-piperidinyl)acetyl]-hydrazino]-carbonothioyl]amino]phenyl]1,4-dihydro-2,6-dimethyl-3,5-pyridinedicarboxylic acid, dimethyl ester]
melting point: 113 to 116 °C

COC(=O)C1=C(C)NC(C)=C(C(=O)OC)C1c1ccc(F)c(NC(=S)NNC(=O)CN2CCC(c3cccc(OC)c3)CC2)c1 [Example 22, 4-[4-Fluoro-3-[[[2-[[4-(3-methoxyphenyl)-1-piperidinyl]acetyl]-hydrazino]-carbonothioyl]amino]phenyl]1,4-dihydro-2,6-dimethyl-3,5-pyridinedicarboxylic acid, dimethyl ester]
melting point: 114 to 120 °C

CN(C)CC1CCC(CN=C(N)c2ccc(C[C@@H](NC(=O)[C@@H](Cc3ccccc3)NS(=O)(=O)c3ccc4ccccc4c3)C(=O)N3CCCC3)cc2)CC1 (stereo partly shown) [SR 120819A]
displacement of I-125 labeled NPY and PYY [5]: displacing | antagonism of NPY-related increases in diastolic blood pressure [6]: antagonized
